Measurements as given in PubChem BioAssay AID1259407 (Chemical Carcinogenesis Research Information System (CCRIS), 2018).
Active and inactive are the calls of the source. The rule behind the calls is not given here.

Tested on: CCRIS mutagenicity, Ames/micronucleus/aberration tests
Assay: CCRIS mutagenicity studies
[1] = Test System: AMES SALMONELLA TYPHIMURIUM, Strain/Indicator: TA98, Metabolic Activation: NONE, Method: PREINCUBATION
[2] = Test System: AMES SALMONELLA TYPHIMURIUM, Strain/Indicator: TA100, Metabolic Activation: NONE, Method: PREINCUBATION

**Q.** With `CCN(CC)CCCC(C)Nc1ccnc2cc(Cl)ccc12` (stereo not drawn) as the compound, how does the mutagenic call (Test System: AMES SALMONELLA TYPHIMURIUM, Strain/Indicator: TA97, Metabolic Activation: NONE, Method: STANDARD PLATE) read?
**A.** active; positive

**Q.** And the mutagenic call (Test System: AMES SALMONELLA TYPHIMURIUM, Strain/Indicator: TA97A, Metabolic Activation: NONE, Method: STANDARD PLATE)?
**A.** inactive; negative

**Q.** What about the mutagenic call (Test System: AMES SALMONELLA TYPHIMURIUM, Strain/Indicator: TA97A, Metabolic Activation: RAT LIVER S-9, PHENOBARBITAL, Method: STANDARD PLATE) of the same compound?
**A.** inactive; negative

**Q.** What about the mutagenic call (Test System: AMES SALMONELLA TYPHIMURIUM, Strain/Indicator: TA97A, Metabolic Activation: RAT, LIVER, S-9, AROCLOR 1254, Method: STANDARD PLATE) of the same compound?
**A.** inactive; negative

**Q.** And the mutagenic call [1]?
**A.** inactive; negative

**Q.** And the mutagenic call (Test System: AMES SALMONELLA TYPHIMURIUM, Strain/Indicator: TA98, Metabolic Activation: NONE, Method: STANDARD PLATE)?
**A.** active; positive

**Q.** What about the mutagenic call (Test System: AMES SALMONELLA TYPHIMURIUM, Strain/Indicator: TA98, Metabolic Activation: RAT, LIVER, S-9, AROCLOR 1254 OR PHENOBARBITOL, Method: STANDARD PLATE) of the same compound?
**A.** active; positive

**Q.** And the mutagenic call (Test System: AMES SALMONELLA TYPHIMURIUM, Strain/Indicator: TA98, Metabolic Activation: RAT, LIVER, S-9, PCB, Method: STANDARD PLATE)?
**A.** inactive; negative

**Q.** What about the mutagenic call (Test System: AMES SALMONELLA TYPHIMURIUM, Strain/Indicator: TA98, Metabolic Activation: RAT, LIVER, S-9, Method: PREINCUBATION) of the same compound?
**A.** inactive; negative

**Q.** What about the mutagenic call [2] of the same compound?
**A.** inactive; negative

**Q.** What about the mutagenic call (Test System: AMES SALMONELLA TYPHIMURIUM, Strain/Indicator: TA100, Metabolic Activation: RAT LIVER S-9, PHENOBARBITAL, Method: STANDARD PLATE) of the same compound?
**A.** inactive; negative

**Q.** What about the mutagenic call (Test System: AMES SALMONELLA TYPHIMURIUM, Strain/Indicator: TA100, Metabolic Activation: RAT, LIVER, S-9, AROCLOR 1254 OR PHENOBARBITOL, Method: STANDARD PLATE) of the same compound?
**A.** active; positive

**Q.** And the mutagenic call (Test System: AMES SALMONELLA TYPHIMURIUM, Strain/Indicator: TA100, Metabolic Activation: RAT, LIVER, S-9, PCB, Method: STANDARD PLATE)?
**A.** inactive; negative

**Q.** What about the mutagenic call (Test System: AMES SALMONELLA TYPHIMURIUM, Strain/Indicator: TA100, Metabolic Activation: RAT, LIVER, S-9, Method: PREINCUBATION) of the same compound?
**A.** inactive; negative

**Q.** And the mutagenic call (Test System: AMES SALMONELLA TYPHIMURIUM, Strain/Indicator: TA102, Metabolic Activation: NONE, Method: STANDARD PLATE)?
**A.** inactive; negative

**Q.** What about the mutagenic call (Test System: AMES SALMONELLA TYPHIMURIUM, Strain/Indicator: TA102, Metabolic Activation: RAT LIVER S-9, PHENOBARBITAL, Method: STANDARD PLATE) of the same compound?
**A.** inactive; negative

**Q.** And the mutagenic call (Test System: AMES SALMONELLA TYPHIMURIUM, Strain/Indicator: TA104, Metabolic Activation: NONE, Method: STANDARD PLATE)?
**A.** inactive; negative

**Q.** What about the mutagenic call (Test System: AMES SALMONELLA TYPHIMURIUM, Strain/Indicator: TA104, Metabolic Activation: RAT LIVER S-9, PHENOBARBITAL, Method: STANDARD PLATE) of the same compound?
**A.** inactive; negative

**Q.** And the mutagenic call (Test System: AMES SALMONELLA TYPHIMURIUM, Strain/Indicator: TA1535, Metabolic Activation: NONE, Method: STANDARD PLATE)?
**A.** inactive; negative

**Q.** And the mutagenic call (Test System: AMES SALMONELLA TYPHIMURIUM, Strain/Indicator: TA1535, Metabolic Activation: RAT, LIVER, S-9, AROCLOR 1254 OR PHENOBARBITOL, Method: STANDARD PLATE)?
**A.** inactive; negative

**Q.** And the mutagenic call (Test System: AMES SALMONELLA TYPHIMURIUM, Strain/Indicator: TA1537, Metabolic Activation: NONE, Method: MICROFLUCTUATION)?
**A.** active; positive

**Q.** And the mutagenic call (Test System: AMES SALMONELLA TYPHIMURIUM, Strain/Indicator: TA1537, Metabolic Activation: NONE, Method: STANDARD PLATE)?
**A.** inactive; negative

**Q.** And the mutagenic call (Test System: AMES SALMONELLA TYPHIMURIUM, Strain/Indicator: TA1537, Metabolic Activation: RAT, LIVER, S-9, AROCLOR 1254, Method: STANDARD PLATE)?
**A.** inactive; negative

**Q.** And the mutagenic call (Test System: AMES SALMONELLA TYPHIMURIUM, Strain/Indicator: TA1537, Metabolic Activation: RAT, LIVER, S-9, AROCLOR 1254 OR PHENOBARBITOL, Method: STANDARD PLATE)?
**A.** inactive; negative

**Q.** What about the mutagenic call (Test System: AMES SALMONELLA TYPHIMURIUM, Strain/Indicator: TA1537, Metabolic Activation: RAT, LIVER, S-9, PCB, Method: STANDARD PLATE) of the same compound?
**A.** inactive; negative

**Q.** What about the mutagenic call (Test System: AMES SALMONELLA TYPHIMURIUM, Strain/Indicator: TA1538, Metabolic Activation: NONE, Method: STANDARD PLATE) of the same compound?
**A.** inactive; negative

**Q.** And the mutagenic call (Test System: AMES SALMONELLA TYPHIMURIUM, Strain/Indicator: TA1538, Metabolic Activation: RAT, LIVER, S-9, AROCLOR OR PHENOBARBITOL, Method: STANDARD PLATE)?
**A.** inactive; negative

**Q.** And the mutagenic call (Test System: AMES SALMONELLA TYPHIMURIUM, Strain/Indicator: TA1538, Metabolic Activation: RAT, LIVER, S-9, PCB, Method: STANDARD PLATE)?
**A.** inactive; negative

**Q.** And the mutagenic call (Test System: AMES SALMONELLA TYPHIMURIUM, Strain/Indicator: TA1977, Metabolic Activation: NONE, Method: MICROFLUCTUATION)?
**A.** inactive; negative

**Q.** And the mutagenic call (Test System: E. COLI, Strain/Indicator: DG1669, Metabolic Activation: NONE, Method: STANDARD PLATE)?
**A.** active; positive

**Q.** And the mutagenic call (Test System: E. COLI, Strain/Indicator: DG1669, Metabolic Activation: RAT, LIVER, S-9, AROCLOR 1254, Method: STANDARD PLATE)?
**A.** active; positive

**Q.** What about the mutagenic call (Test System: E. COLI, Strain/Indicator: WP2 UVRA, Metabolic Activation: RAT, LIVER, S-9, PCB, Method: STANDARD PLATE) of the same compound?
**A.** inactive; negative

**Q.** `O=[N+]([O-])c1ccc(OC[C@@H]2CO2)cc1` was tested. Which mutagenic call (Test System: AMES SALMONELLA TYPHIMURIUM, Strain/Indicator: TA100, Metabolic Activation: NONE, Method: STANDARD PLATE) did it give?
**A.** active; positive

**Q.** For `CCCCCCCCCCCCCCCCCC(N)=O`, which mutagenic call [1] is on record?
**A.** inactive; negative

**Q.** What about the mutagenic call (Test System: AMES SALMONELLA TYPHIMURIUM, Strain/Indicator: TA98, Metabolic Activation: RAT LIVER S-9, PHENOBARBITAL AND BETA-NAPHTHOFLAVONE, Method: PREINCUBATION) of the same compound?
**A.** inactive; negative

**Q.** What about the mutagenic call [2] of the same compound?
**A.** inactive; negative

**Q.** And the mutagenic call (Test System: AMES SALMONELLA TYPHIMURIUM, Strain/Indicator: TA100, Metabolic Activation: RAT LIVER S-9, PHENOBARBITAL AND BETA-NAPHTHOFLAVONE, Method: PREINCUBATION)?
**A.** inactive; negative

**Q.** What about the mutagenic call (Test System: AMES SALMONELLA TYPHIMURIUM, Strain/Indicator: TA1535, Metabolic Activation: NONE, Method: PREINCUBATION) of the same compound?
**A.** inactive; negative

**Q.** What about the mutagenic call (Test System: AMES SALMONELLA TYPHIMURIUM, Strain/Indicator: TA1535, Metabolic Activation: RAT LIVER S-9, PHENOBARBITAL AND BETA-NAPHTHOFLAVONE, Method: PREINCUBATION) of the same compound?
**A.** inactive; negative

**Q.** And the mutagenic call (Test System: AMES SALMONELLA TYPHIMURIUM, Strain/Indicator: TA1537, Metabolic Activation: NONE, Method: PREINCUBATION)?
**A.** inactive; negative

**Q.** What about the mutagenic call (Test System: AMES SALMONELLA TYPHIMURIUM, Strain/Indicator: TA1537, Metabolic Activation: RAT LIVER S-9, PHENOBARBITAL AND BETA-NAPHTHOFLAVONE, Method: PREINCUBATION) of the same compound?
**A.** inactive; negative

**Q.** And the mutagenic call (Test System: E.COLI, Strain/Indicator: WP2UVRA/PKM101, Metabolic Activation: NONE, Method: PREINCUBATION)?
**A.** inactive; negative

**Q.** What about the mutagenic call (Test System: E.COLI, Strain/Indicator: WP2UVRA/PKM101, Metabolic Activation: RAT LIVER S-9, PHENOBARBITAL AND BETA-NAPHTHOFLAVONE, Method: PREINCUBATION) of the same compound?
**A.** inactive; negative
